Measured values as given in ChEMBL document CHEMBL3988442, “University of Dundee, Small-Polar-MMV Screening Library” (2021).
Where “and” joins values, the source holds several entries; their conditions need not be identical. Equal values may be shown once.

Columns and labels:
Shiga toxin 2 = target: T1, Shiga toxin 2 (Escherichia coli O157:H7, UniProt P09385+P09386); assay: E. coli 0.157:H7 Shiga Toxin SOP - stx2 screening assay; format: functional
T1 sequence (P09385 whole entry): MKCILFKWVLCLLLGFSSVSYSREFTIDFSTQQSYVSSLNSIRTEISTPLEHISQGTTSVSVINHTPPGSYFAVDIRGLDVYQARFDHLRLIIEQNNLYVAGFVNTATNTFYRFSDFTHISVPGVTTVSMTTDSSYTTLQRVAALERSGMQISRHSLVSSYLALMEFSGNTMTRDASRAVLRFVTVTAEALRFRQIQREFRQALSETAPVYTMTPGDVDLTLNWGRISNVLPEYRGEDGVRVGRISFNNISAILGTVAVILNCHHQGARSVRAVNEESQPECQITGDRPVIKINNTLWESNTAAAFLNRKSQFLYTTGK
T1 sequence (P09386 whole entry): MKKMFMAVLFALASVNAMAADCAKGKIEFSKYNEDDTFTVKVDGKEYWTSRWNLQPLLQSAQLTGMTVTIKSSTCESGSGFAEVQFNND

Lysine--tRNA ligase = Lysine--tRNA ligase (Plasmodium falciparum (isolate 3D7), UniProt Q8IDJ8); assay: Pf-KRS-1 (Lysyl-RNA Synthetase-1, KRS-1, cytosolic KRS) from Plasmodium falciparum. Inhibitor assay, 384 well plate, luminescence read.; format: functional
[1] = target: T2, Ubiquitin-activating enzyme e1, putative (Leishmania donovani (strain BPK282A1), UniProt E9BSI1); assay: Leishmania donovani Ubiquitin Activating Enzyme (LdE1); format: functional
T2 sequence (E9BSI1 whole entry): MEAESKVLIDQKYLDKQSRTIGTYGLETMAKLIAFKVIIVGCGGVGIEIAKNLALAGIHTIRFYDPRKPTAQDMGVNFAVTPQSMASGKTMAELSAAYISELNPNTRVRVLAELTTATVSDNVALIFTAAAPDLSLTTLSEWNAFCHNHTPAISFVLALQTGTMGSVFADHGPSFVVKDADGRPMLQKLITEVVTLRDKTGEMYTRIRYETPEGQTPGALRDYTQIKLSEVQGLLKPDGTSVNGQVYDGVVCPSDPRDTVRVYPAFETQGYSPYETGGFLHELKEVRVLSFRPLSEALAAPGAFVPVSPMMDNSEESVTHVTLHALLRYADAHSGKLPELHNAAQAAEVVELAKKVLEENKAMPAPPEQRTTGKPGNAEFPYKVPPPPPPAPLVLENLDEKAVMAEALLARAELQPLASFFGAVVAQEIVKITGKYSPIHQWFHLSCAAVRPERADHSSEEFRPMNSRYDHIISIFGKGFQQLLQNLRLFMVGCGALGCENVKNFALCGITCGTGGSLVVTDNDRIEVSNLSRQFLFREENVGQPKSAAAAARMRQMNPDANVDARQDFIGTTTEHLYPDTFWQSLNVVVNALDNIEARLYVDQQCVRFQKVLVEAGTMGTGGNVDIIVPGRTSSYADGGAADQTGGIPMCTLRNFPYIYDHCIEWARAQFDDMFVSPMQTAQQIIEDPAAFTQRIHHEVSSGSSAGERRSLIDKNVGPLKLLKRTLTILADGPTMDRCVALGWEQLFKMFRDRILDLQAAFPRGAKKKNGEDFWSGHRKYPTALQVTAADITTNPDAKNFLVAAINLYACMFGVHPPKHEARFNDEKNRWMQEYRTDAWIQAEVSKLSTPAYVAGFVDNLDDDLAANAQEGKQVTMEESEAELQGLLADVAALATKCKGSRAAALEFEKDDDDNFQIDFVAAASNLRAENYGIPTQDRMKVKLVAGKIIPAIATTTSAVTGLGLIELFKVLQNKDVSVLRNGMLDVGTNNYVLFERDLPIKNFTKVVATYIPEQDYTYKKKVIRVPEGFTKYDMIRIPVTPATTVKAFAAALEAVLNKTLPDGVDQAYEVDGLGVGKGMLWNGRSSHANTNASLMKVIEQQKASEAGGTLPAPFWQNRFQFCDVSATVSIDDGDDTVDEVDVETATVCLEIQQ

[2] = target: Protein translocase subunit SecA (Escherichia coli (strain K12), UniProt P10408); assay: Assay to Identify E. coli SecA ATPase Inhibitors; format: functional
ClpP1P2 = ClpP1P2 (Mycobacterium tuberculosis (strain ATCC 25618 / H37Rv), UniProt P9WPC3+P9WPC5); assay: in vitro assay to detect presence of AMC directly proportional to the activity of ClpP1P2. GHDDI collaboration.; format: functional
Histidine--tRNA ligase [3] = target: T3, Histidine--tRNA ligase (Trypanosoma cruzi (strain CL Brener), UniProt Q4DA54); assay: Trypanosoma cruzi histidyl tRNA synthetase (Tc-HisRS); format: functional
T3 sequence (Q4DA54 whole entry): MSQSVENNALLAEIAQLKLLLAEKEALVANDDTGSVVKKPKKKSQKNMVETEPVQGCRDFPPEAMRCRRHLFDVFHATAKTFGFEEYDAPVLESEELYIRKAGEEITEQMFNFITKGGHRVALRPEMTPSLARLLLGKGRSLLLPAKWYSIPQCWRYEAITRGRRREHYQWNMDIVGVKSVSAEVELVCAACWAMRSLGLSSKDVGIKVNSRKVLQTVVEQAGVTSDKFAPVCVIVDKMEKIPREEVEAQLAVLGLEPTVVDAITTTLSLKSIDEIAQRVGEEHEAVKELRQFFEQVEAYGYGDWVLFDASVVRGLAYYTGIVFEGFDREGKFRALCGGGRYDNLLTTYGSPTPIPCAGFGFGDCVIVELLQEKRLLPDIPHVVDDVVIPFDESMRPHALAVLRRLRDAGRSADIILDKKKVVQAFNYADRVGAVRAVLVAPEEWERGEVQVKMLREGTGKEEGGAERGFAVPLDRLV

Histidine--tRNA ligase [4] = target: T4, Histidine--tRNA ligase (Leishmania infantum, UniProt A4I591); assay: Leishmania infantum Histidine tRNA synthetase (LdHisRS); format: functional
T4 sequence (A4I591 whole entry): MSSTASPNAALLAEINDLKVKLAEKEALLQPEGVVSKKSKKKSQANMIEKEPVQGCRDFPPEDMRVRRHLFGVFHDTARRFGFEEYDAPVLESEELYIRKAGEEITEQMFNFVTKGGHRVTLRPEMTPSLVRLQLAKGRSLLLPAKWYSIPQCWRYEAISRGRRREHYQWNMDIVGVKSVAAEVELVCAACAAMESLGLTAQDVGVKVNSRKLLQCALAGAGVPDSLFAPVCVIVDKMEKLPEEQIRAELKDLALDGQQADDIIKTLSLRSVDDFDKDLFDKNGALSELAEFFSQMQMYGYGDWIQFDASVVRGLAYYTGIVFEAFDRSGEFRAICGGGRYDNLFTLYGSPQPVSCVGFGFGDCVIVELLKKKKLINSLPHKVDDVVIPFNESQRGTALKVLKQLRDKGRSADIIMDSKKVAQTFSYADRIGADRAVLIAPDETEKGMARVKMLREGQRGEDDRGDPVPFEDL

[5] = microbe, parasite or virus in culture; conditions: Mycobacterium tuberculosis, 72 h, read-out: pIC50 (converted)
[6] = microbe, parasite or virus in culture; conditions: Mycobacterium tuberculosis, 96 h, read-out: pIC50 (converted)
[7] = target: Chromo domain-containing protein 1 (Saccharomyces cerevisiae (strain ATCC 204508 / S288c) (Baker's yeast), UniProt P32657); assay: ScCHD-1 Enzyme Inhibition Assay; format: functional
[8] = To identify inhibition of the IFN signalling (Jak-Stat) pathway via expression of an eGFP reporter gene under the control of an IFN-stimulated response element (ISRE) containing MxA promoter.; format: functional, Homo sapiens

Sequence of Lysine--tRNA ligase (Q8IDJ8 whole entry): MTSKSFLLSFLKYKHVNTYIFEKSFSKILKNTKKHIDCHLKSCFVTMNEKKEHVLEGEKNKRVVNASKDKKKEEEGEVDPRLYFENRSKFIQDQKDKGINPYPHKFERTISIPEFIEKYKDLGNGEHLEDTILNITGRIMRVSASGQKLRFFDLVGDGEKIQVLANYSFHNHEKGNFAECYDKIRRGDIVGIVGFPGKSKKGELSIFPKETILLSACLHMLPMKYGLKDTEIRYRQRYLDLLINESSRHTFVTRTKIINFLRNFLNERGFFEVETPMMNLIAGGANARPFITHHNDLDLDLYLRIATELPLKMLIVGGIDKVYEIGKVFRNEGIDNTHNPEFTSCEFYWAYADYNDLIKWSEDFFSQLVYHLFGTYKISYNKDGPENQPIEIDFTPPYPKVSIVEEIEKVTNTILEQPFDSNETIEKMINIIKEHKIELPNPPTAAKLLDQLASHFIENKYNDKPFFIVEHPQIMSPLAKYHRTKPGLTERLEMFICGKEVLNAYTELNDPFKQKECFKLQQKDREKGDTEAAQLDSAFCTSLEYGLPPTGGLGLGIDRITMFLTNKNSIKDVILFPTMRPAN
Sequence of ClpP1P2 (P9WPC5 whole entry): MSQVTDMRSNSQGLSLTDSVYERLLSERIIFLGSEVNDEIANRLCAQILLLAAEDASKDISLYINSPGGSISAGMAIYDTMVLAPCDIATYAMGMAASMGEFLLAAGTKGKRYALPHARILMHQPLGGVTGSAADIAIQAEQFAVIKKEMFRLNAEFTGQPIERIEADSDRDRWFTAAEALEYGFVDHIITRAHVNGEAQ
Sequence of ClpP1P2 (P9WPC3 whole entry): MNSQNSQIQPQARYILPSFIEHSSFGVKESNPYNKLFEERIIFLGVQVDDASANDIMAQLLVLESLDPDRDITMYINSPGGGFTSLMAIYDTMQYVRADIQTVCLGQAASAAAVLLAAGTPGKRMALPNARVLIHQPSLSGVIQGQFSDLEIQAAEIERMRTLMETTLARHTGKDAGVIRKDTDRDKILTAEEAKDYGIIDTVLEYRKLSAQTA
Sequence of Protein translocase subunit SecA (P10408 whole entry): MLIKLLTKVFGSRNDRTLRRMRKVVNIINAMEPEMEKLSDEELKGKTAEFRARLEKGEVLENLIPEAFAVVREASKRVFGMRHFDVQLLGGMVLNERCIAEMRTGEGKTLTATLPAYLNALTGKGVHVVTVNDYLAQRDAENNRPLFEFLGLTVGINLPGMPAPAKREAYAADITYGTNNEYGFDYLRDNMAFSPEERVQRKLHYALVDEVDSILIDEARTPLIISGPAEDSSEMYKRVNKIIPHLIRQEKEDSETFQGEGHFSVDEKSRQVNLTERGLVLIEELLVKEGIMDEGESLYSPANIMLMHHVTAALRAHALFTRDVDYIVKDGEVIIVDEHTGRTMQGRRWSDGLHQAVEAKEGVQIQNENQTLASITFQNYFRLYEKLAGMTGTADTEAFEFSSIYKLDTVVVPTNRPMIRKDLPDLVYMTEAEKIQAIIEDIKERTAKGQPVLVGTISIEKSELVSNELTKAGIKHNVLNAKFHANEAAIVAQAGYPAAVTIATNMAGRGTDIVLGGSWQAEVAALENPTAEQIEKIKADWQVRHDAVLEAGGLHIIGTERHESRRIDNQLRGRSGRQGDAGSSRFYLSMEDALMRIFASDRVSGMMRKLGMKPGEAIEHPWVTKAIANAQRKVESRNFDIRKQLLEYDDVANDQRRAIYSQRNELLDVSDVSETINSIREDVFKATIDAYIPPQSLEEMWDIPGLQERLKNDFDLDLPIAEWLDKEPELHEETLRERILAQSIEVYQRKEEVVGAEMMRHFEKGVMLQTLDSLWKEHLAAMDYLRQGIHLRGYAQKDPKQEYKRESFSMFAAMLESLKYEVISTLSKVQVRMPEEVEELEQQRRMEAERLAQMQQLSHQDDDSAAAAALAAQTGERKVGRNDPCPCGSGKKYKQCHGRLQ
Sequence of Chromo domain-containing protein 1 (P32657 whole entry, the tested form may be a part): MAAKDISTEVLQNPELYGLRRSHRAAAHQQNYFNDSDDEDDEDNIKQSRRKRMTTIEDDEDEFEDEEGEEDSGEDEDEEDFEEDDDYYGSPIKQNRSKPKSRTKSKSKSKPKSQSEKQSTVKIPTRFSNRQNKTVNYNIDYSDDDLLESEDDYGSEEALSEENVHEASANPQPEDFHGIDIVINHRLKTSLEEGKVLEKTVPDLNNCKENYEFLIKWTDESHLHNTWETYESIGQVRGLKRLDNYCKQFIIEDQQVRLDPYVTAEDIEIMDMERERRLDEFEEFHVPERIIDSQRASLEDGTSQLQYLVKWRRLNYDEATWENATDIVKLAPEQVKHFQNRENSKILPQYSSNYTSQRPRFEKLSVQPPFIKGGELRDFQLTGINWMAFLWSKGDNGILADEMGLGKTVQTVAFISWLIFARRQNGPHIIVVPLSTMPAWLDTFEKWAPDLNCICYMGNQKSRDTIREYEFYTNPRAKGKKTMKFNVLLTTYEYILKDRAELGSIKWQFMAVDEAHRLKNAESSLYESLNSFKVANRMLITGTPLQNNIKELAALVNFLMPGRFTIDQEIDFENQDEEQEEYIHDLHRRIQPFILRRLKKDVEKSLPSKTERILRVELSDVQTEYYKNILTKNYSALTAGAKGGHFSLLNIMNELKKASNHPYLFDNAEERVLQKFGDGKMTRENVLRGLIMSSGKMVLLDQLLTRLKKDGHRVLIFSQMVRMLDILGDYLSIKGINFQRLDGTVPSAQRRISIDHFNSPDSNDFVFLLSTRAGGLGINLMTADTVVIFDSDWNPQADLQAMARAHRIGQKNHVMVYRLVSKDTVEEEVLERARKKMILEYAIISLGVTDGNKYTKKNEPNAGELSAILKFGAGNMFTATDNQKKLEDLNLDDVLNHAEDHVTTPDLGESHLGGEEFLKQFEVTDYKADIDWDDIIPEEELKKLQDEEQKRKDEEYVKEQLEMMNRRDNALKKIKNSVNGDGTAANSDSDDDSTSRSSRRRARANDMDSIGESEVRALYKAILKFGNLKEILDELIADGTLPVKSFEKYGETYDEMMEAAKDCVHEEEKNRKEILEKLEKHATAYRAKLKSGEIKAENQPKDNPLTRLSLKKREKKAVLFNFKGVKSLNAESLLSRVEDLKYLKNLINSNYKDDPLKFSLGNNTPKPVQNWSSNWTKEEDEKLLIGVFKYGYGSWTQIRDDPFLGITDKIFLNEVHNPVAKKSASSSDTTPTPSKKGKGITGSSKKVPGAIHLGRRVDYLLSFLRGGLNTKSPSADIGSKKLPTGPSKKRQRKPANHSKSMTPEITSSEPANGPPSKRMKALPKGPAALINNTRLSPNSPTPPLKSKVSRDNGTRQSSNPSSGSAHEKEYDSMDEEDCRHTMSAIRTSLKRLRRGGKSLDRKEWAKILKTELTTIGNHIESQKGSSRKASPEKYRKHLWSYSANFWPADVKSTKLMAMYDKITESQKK

In the case of `COc1c(CNC(c2ccc(F)cc2)C(C)(C)C)c(C)nn1C` (stereo not drawn), the IC50 (Shiga toxin 2) is reported as > 100 µM.
For `CC(C)Oc1ccccc1C1CC(=O)Nc2nc(N3CCOCC3)sc21` (stereo not drawn), the IC50 (Lysine--tRNA ligase) was > 50.1 µM, the IC50 [1] was 86.4 µM and 89.7 µM and the IC50 [2] was 41.6 µM and 34.6 µM. The IC50 (ClpP1P2) was > 100 µM and the IC50 (Histidine--tRNA ligase [3]) was 3.93 µM and 5.46 µM.
In the case of `COc1ccc(C)cc1CN(C)Cc1nc2c(cnn2C)c(=O)[nH]1`, the IC50 (Shiga toxin 2) is reported as > 100 µM.
For `O=C(Cc1cccc(Cl)c1)N[C@@H]1CCNC[C@H]1O`, the IC50 (Shiga toxin 2) was > 100 µM and 21.3 µM.
In the case of `Nc1cc(CCC2CN(Cc3ccc(C(=O)O)cc3)CCO2)ccn1` (stereo not drawn), the IC50 (Shiga toxin 2) is reported as > 100 µM.
In the case of `O=C1CC(c2ccccc2Br)c2sc(N3CCOCC3)nc2N1` (stereo not drawn), the IC50 (Lysine--tRNA ligase) is reported as > 50.1 µM, the IC50 [1] is reported as > 100 µM and 92.2 µM and the IC50 [2] is reported as > 100 µM. The IC50 (Histidine--tRNA ligase [4]) was 1.13 µM and 1.44 µM and the IC50 (Histidine--tRNA ligase [3]) was 6.96 µM and 6.21 µM.
In the case of `Nc1nc2c(s1)C(c1c(F)cccc1Cl)CC(=O)N2` (stereo not drawn), the IC50 (Lysine--tRNA ligase) is reported as > 50.1 µM, the IC50 [2] is reported as > 100 µM and the IC50 (Histidine--tRNA ligase [4]) is reported as 3.22 µM and 4.42 µM. The IC50 (Histidine--tRNA ligase [3]) was 9.65 µM and 7.68 µM.
For `NCc1cn(-c2ccccc2C(=O)NCc2cccc(Cl)c2)cn1`, the IC50 (Shiga toxin 2) was > 100 µM.
In the case of `CNc1nc2c(s1)C(c1c(Cl)cccc1Cl)CC(=O)N2` (stereo not drawn), the IC50 (Lysine--tRNA ligase) is reported as > 50.1 µM, the IC50 [2] is reported as 89.4 µM and 43.2 µM and the IC50 (Histidine--tRNA ligase [4]) is reported as 20.8 µM and 17.5 µM. The IC50 (Histidine--tRNA ligase [3]) was 21.3 µM and 23 µM.
For `O=S(=O)(CCN1CCOC(Cn2cccn2)C1)C(F)(F)F` (stereo not drawn), the IC50 [5] was 28.9 µM, the IC50 (Shiga toxin 2) was 15 µM and 14 µM and the IC50 [6] was > 50.1 µM. For the same compound, the IC50 [7] was > 29.5 µM.
For `COc1ncc(C2(O)CCN(Cc3c(F)cccc3F)CC2)c(OC)n1`, the IC50 (Shiga toxin 2) was > 100 µM.
For `COc1cccc(C2CC(=O)Nc3nc(N4CCOCC4)sc32)c1OC` (stereo not drawn), the IC50 (Lysine--tRNA ligase) was > 50.1 µM, the IC50 [1] was 85.8 µM and 91 µM and the IC50 [2] was 10.6 µM and 8.05 µM. For the same compound, the IC50 (Histidine--tRNA ligase [4]) was 1.2 µM and 0.876 µM and the IC50 (Histidine--tRNA ligase [3]) was 5.22 µM and 4.5 µM.
For `COc1ccccc1CC(=O)N1CC[C@@]2(CCCO2)[C@@H](OC)C1`, the IC50 (Shiga toxin 2) was > 100 µM.
In the case of `COc1ccc(C2CC(=O)Nc3nc(N4CCOCC4)sc32)cc1` (stereo not drawn), the IC50 (Lysine--tRNA ligase) is reported as > 50.1 µM, the IC50 [1] is reported as > 100 µM and the IC50 [2] is reported as 37.3 µM and > 100 µM. For the same compound, the IC50 (Histidine--tRNA ligase [4]) was 1.79 µM and 2.45 µM and 2.49 µM and 2.07 µM, the IC50 (ClpP1P2) was > 100 µM and the IC50 (Histidine--tRNA ligase [3]) was 10.8 µM and 8.7 µM.
For `CC(C)(C)NC(=O)NC(=O)CNC(C)(C)c1ccc2c(c1)OCCO2`, the IC50 (Shiga toxin 2) was > 100 µM.
In the case of `CN(C)S(=O)(=O)N1CCCC(c2cccc(Cc3ccccc3)n2)C1` (stereo not drawn), the IC50 (Shiga toxin 2) is reported as > 100 µM and the pIC50 [8] is reported as 4.718 and 4.613.
In the case of `CNc1nc2c(s1)C(c1ccccc1Cl)CC(=O)N2` (stereo not drawn), the IC50 (Lysine--tRNA ligase) is reported as > 50.1 µM, the IC50 [2] is reported as > 100 µM and the IC50 (Histidine--tRNA ligase [4]) is reported as 2.19 µM and 2.57 µM and 2.79 µM and 2.64 µM. The IC50 (Histidine--tRNA ligase [3]) was 6.72 µM and 7.27 µM.
For `COc1ccc(C2CC(=O)Nc3nc(N4CCOCC4)sc32)c(OC)c1` (stereo not drawn), the IC50 (Lysine--tRNA ligase) was > 50.1 µM, the IC50 [1] was > 100 µM and the IC50 [2] was > 100 µM and 33.8 µM. For the same compound, the IC50 (Histidine--tRNA ligase [4]) was 0.231 µM and 0.259 µM and 0.28 µM, the IC50 (ClpP1P2) was > 100 µM and the IC50 (Histidine--tRNA ligase [3]) was 2.24 µM and 2.8 µM.
For `COc1cccc(C2CC(=O)Nc3nc(N4CCCCC4)sc32)c1OC` (stereo not drawn), the IC50 (Lysine--tRNA ligase) was > 50.1 µM, the IC50 [1] was 81.5 µM and 75 µM and the IC50 [2] was 22.7 µM and 22.6 µM. For the same compound, the IC50 (Histidine--tRNA ligase [4]) was 0.423 µM and 0.346 µM, the IC50 (ClpP1P2) was > 100 µM and the IC50 (Histidine--tRNA ligase [3]) was 2.42 µM and 4.13 µM.
With `CNc1nc2c(s1)C(c1ccc(F)cc1Cl)CC(=O)N2` (stereo not drawn) the IC50 (Lysine--tRNA ligase) was > 50.1 µM, the IC50 [2] was > 100 µM and the IC50 (Histidine--tRNA ligase [3]) was 22.8 µM and 15.7 µM.
With `O=S(=O)(c1ccccc1)N1CCCCC1c1cc[nH]n1` (stereo not drawn) the IC50 (Shiga toxin 2) was > 100 µM.
